Values of other authors, collected in US20020046426A1, “Application of carbonyl compounds in the process of tanning hides” (RHODIA BRASIL LTDA., priority 1999, published 2002).

Key:
[1] = test system: mice; conditions: mouse, in vivo, po
[2] = test system: eyes

Row | SMILES | LD50 [1] [mg/kg] | irritation to the eyes [2]
1 | CC(O)CC=O (centres unmarked) [aldol, 3-hydroxyl butanal] | 2180 | –
2 | C/C=C/C=O [crotonaldehyde, 2-butenal] | – | extremely irritant to the eyes
